A word on the IC50: it is the concentration that inhibits the measured activity by half.

Numbered stars: 1 amine (or outer) side, 2 acyl side, 3 side chain; on linkers, the order of the positions; unused ones are H or OH. Square brackets hold non-standard residues; d marks the D form. Peptide text beside a SMILES is read from it. * marks the point of attachment. Trimesoyl = O=C(c1cc(C(=O)[*:2])cc(C(=O)[*:3])c1)[*:1]; Thiophene2carbonyl = O=C(c1cccs1)*; 1Naphthoyl = O=C(c1cccc2ccccc12)*; Galloyl = O=C(c1cc(O)c(O)c(O)c1)*; Trx = NC[C@H]1CC[C@H](C(=O)O)CC1; 4Amb = NCc1ccc(C(=O)O)cc1; 4Abz = Nc1ccc(C(=O)O)cc1; Butyryl = CCCC(=O)*; Bz = O=C(c1ccccc1)*; X1 = CN(C)CCCC(=O)*; Ahx = NCCCCCC(=O)O; GABA = NCCCC(=O)O Some results are limits rather than exact numbers.

For the first experiment, the target named is T1, human P-selectin (Homo sapiens, UniProt P16109).
T1 construct: IgG-Fc (fusion partner); purchased R&D Systems Europe Ltd., Abingdon, United Kingdom
T1 sequence (P16109 with tags, fused parts or gaps limits assumed): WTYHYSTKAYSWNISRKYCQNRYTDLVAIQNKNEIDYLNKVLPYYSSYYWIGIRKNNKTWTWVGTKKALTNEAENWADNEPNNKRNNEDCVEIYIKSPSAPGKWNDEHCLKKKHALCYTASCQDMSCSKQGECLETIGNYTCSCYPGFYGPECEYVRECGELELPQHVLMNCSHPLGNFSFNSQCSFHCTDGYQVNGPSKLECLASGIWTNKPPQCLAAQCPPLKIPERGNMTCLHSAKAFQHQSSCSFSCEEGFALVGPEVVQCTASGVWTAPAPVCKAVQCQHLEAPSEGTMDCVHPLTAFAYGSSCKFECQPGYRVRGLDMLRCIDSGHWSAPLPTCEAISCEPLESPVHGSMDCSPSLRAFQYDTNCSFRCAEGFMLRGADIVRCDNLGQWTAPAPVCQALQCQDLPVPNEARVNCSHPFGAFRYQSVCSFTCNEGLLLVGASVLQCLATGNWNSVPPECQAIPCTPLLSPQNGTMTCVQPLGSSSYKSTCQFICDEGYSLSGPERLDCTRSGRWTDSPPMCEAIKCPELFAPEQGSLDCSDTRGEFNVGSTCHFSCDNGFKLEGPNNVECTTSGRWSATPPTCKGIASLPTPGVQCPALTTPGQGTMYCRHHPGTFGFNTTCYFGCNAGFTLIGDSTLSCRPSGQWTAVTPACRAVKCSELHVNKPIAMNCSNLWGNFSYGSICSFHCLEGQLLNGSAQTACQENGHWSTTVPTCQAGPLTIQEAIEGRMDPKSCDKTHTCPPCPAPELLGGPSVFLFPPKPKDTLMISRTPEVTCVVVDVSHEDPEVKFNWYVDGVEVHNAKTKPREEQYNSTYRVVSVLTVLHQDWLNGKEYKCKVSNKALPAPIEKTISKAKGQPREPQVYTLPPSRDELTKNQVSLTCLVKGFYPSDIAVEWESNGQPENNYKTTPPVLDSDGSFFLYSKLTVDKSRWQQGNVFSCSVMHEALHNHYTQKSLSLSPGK
Description: Competition assay with TM11-PO (competition ELISA). Format: binding. The settings on record: Table 1; derivatised peptides HPij; inhibition of TM11-PO binding to human P-selectin; read-out: IC50. As to the method: Compounds according to the invention, as prepared in examples 1, 2 and 3 and some reference peptide compounds were assayed for its ability to inhibit TM11-PO binding to human P-selectin. […] For competition studies, a 96 wells microtiter plate (high binding, flat bottom, Costar, Corning, U.S.A.) was coated overnight at 4° C. with 10 μg/ml goat anti-human IgG (Fc specific) (Sigma-Aldrich, Zwijndrecht, the Netherlands) in coating buffer (50 mM NaHCO3, pH 9.6). Subsequently, wells were washed with assay buffer and incubated for 1 hour at 37° C. with blocking buffer (3% BSA in assay buffer). After washing with assay buffer, the wells were incubated for 2 hours at 37° C. with the human P-selectin IgG-Fc chimera (R&D Systems Europe Ltd., Abingdon, United Kingdom) (0.3 μg/ml). Subsequently, wells were washed with assay buffer and incubated for 1 hour at 4° C. with the TM11-PO complex. The wells were washed six times with washing buffer (0.1% Tween 20 in assay buffer). […] (TMB)/hydrogen peroxide (H2O2) (Pierce, Rochford, U.S.A.) was added and wells were incubated at room temperature for 15 minutes. The reaction was halted by addition of 2 M H2SO4 and the absorbance was measured at 450 nm.
(An ELISA detects its analyte on a solid surface through an enzyme-linked reagent.)
Consider `CC(C)[C@H](NC(=O)[C@H](CC(=O)O)NC(=O)[C@@H](NC(=O)[C@H](Cc1c[nH]c2ccccc12)NC(=O)[C@@H](N)CCC(=O)O)C(C)C)C(=O)N[C@@H](CCCCNC(=O)c1cc(O)c(O)c(O)c1)C(=O)NCCCC(=O)O` [HP06] (H-EWVDVK(Galloyl)[GABA]-OH), for which the IC50 stood at 6 µM.
Take `CC(C)[C@H](NC(=O)[C@H](CC(=O)O)NC(=O)[C@@H](NC(=O)[C@H](Cc1c[nH]c2ccccc12)NC(=O)[C@H](CCC(=O)O)NC(=O)c1cc(C(=O)O)cc(C(=O)O)c1)C(C)C)C(=O)N[C@@H](CCCCNC(=O)c1cccc2ccccc12)C(=O)NCCCC(=O)O` [HP14] (Trimesoyl-EWVDVK(1Naphthoyl)[GABA]-OH): the IC50 turned out to be 1.02 µM.
The same measure, in the same setting: next, `CC(C)[C@H](NC(=O)[C@H](CC(=O)O)NC(=O)[C@@H](NC(=O)[C@H](Cc1c[nH]c2ccccc12)NC(=O)[C@H](CCC(=O)O)NC(=O)c1cc(C(=O)O)cc(C(=O)O)c1)C(C)C)C(=O)N[C@@H](CCCCNC(=O)c1cc(O)c(O)c(O)c1)C(=O)NCCCC(=O)O` [HP16] (Trimesoyl-EWVDVK(Galloyl)[GABA]-OH): 0.31 µM.
As to `CC(C)[C@H](NC(=O)[C@H](CC(=O)O)NC(=O)[C@@H](NC(=O)[C@H](Cc1c[nH]c2ccccc12)NC(=O)[C@H](CCC(=O)O)NC(=O)c1cc(C(=O)O)cc(C(=O)O)c1)C(C)C)C(=O)N[C@@H](CCCCNC(=O)c1ccccc1)C(=O)NCCCC(=O)O` [HP17] (Trimesoyl-EWVDVK(Bz)[GABA]-OH), the IC50 is 0.45 µM.
On to `CC(C)[C@H](NC(=O)[C@H](CC(=O)O)NC(=O)[C@@H](NC(=O)[C@H](Cc1c[nH]c2ccccc12)NC(=O)[C@H](CCC(=O)O)NC(=O)c1cc(O)c(O)c(O)c1)C(C)C)C(=O)N[C@@H](CCCCN)C(=O)NCCCC(=O)O` [HP60] (Galloyl-EWVDVK[GABA]-OH), for which the IC50 amounted to 1.1 µM.
Same read-out and setting: the same measure for `CC(C)[C@H](NC(=O)[C@H](CC(=O)O)NC(=O)[C@@H](NC(=O)[C@H](Cc1c[nH]c2ccccc12)NC(=O)[C@H](CCC(=O)O)NC(=O)c1cc(O)c(O)c(O)c1)C(C)C)C(=O)N[C@@H](CCCCNC(=O)c1cc(C(=O)O)cc(C(=O)O)c1)C(=O)NCCCC(=O)O` [HP61] (Galloyl-EWVDVK(Trimesoyl)[GABA]-OH): 0.19 µM.
As for `CC(C)[C@H](NC(=O)[C@H](CC(=O)O)NC(=O)[C@@H](NC(=O)[C@H](Cc1c[nH]c2ccccc12)NC(=O)[C@H](CCC(=O)O)NC(=O)c1cc(O)c(O)c(O)c1)C(C)C)C(=O)N[C@@H](CCCCNC(=O)CCCN(C)C)C(=O)NCCCC(=O)O` [HP62] (Galloyl-EWVDVK(X1)[GABA]-OH), the IC50 was determined as 0.28 µM.
Still for that read-out and setting: next, `CC(C)[C@H](NC(=O)[C@H](CC(=O)O)NC(=O)[C@@H](NC(=O)[C@H](Cc1c[nH]c2ccccc12)NC(=O)[C@H](CCC(=O)O)NC(=O)c1cc(O)c(O)c(O)c1)C(C)C)C(=O)N[C@@H](CCCCNC(=O)c1cccs1)C(=O)NCCCC(=O)O` [HP63] (Galloyl-EWVDVK(Thiophene2carbonyl)[GABA]-OH): 3.4 µM.
On the same count and under the same terms, the same measure for `CCCC(=O)NCCCC[C@H](NC(=O)[C@@H](NC(=O)[C@H](CC(=O)O)NC(=O)[C@@H](NC(=O)[C@H](Cc1c[nH]c2ccccc12)NC(=O)[C@H](CCC(=O)O)NC(=O)c1cc(O)c(O)c(O)c1)C(C)C)C(C)C)C(=O)NCCCC(=O)O` [HP65] (Galloyl-EWVDVK(Butyryl)[GABA]-OH): 2.35 µM.

Still in this experiment, the particulars now being: Table 2; average of at least 3 experiments at 8 concentrations, TM11-PO competition ELISA; read-out: IC50 for human P-selectin as determined by competition Elisa.
For the molecule `CC(C)[C@H](NC(=O)[C@H](CC(=O)O)NC(=O)[C@@H](NC(=O)[C@H](Cc1c[nH]c2ccccc12)NC(=O)c1cc(O)c(O)c(O)c1)C(C)C)C(=O)O` [Peptide 12, GA-WVDV] (Galloyl-WVDV-OH), the IC50 came out at 0.037 µM.

Staying with this experiment, now noted: Table 3; gallic acid derivatized peptides; mean of at least 3 experiments at 8 concentrations; read-out: IC50 for human P-selectin as determined by competition Elisa.
With `CC(C)[C@H](NC(=O)[C@H](CC(=O)O)NC(=O)[C@@H](NC(=O)[C@H](Cc1c[nH]c2ccccc12)NC(=O)c1cc(O)c(O)c(O)c1)C(C)C)C(=O)O` [Peptide 12, GA-WVDV] (Galloyl-WVDV-OH), the IC50 was 0.0371 µM.
Regarding `CC(C)[C@H](NC(=O)[C@H](CC(=O)O)NC(=O)[C@@H](NC(=O)[C@H](Cc1c[nH]c2ccccc12)NC(=O)CNC(=O)c1cc(O)c(O)c(O)c1)C(C)C)C(=O)O` [Peptide 27] (Galloyl-GWVDV-OH), the IC50 was found to be 0.0183 µM.
On the same count and under the same terms, next, `CC(C)[C@H](NC(=O)[C@H](CC(=O)O)NC(=O)[C@@H](NC(=O)[C@H](Cc1c[nH]c2ccccc12)NC(=O)CCCNC(=O)c1cc(O)c(O)c(O)c1)C(C)C)C(=O)O` [Peptide 28] ({Galloyl-GABA}-WVDV-OH): 0.0154 µM; `CC(C)[C@H](NC(=O)[C@H](CC(=O)O)NC(=O)[C@@H](NC(=O)[C@H](Cc1c[nH]c2ccccc12)NC(=O)CCCCCNC(=O)c1cc(O)c(O)c(O)c1)C(C)C)C(=O)O` [Peptide 29] ({Galloyl-Ahx}-WVDV-OH): 0.0629 µM; `CC(C)[C@H](NC(=O)[C@H](CC(=O)O)NC(=O)[C@@H](NC(=O)[C@H](Cc1c[nH]c2ccccc12)NC(=O)[C@@H]1CCCN1C(=O)c1cc(O)c(O)c(O)c1)C(C)C)C(=O)O` [Peptide 30] (Galloyl-PWVDV-OH): 0.25 µM.
Same read-out and setting: the same measure for `CC(C)[C@H](NC(=O)[C@H](CC(=O)O)NC(=O)[C@@H](NC(=O)[C@H](Cc1c[nH]c2ccccc12)NC(=O)c1ccc(NC(=O)c2cc(O)c(O)c(O)c2)cc1)C(C)C)C(=O)O` [Peptide 31] ({Galloyl-4Abz}-WVDV-OH): above 1 µM; for `CC(C)[C@H](NC(=O)[C@H](CC(=O)O)NC(=O)[C@@H](NC(=O)[C@H](Cc1c[nH]c2ccccc12)NC(=O)c1ccc(CNC(=O)c2cc(O)c(O)c(O)c2)cc1)C(C)C)C(=O)O` [Peptide 32] ({Galloyl-4Amb}-WVDV-OH): 0.59 µM; for `CC(C)[C@H](NC(=O)[C@H](CC(=O)O)NC(=O)[C@@H](NC(=O)[C@H](Cc1c[nH]c2ccccc12)NC(=O)[C@H]1CC[C@H](CNC(=O)c2cc(O)c(O)c(O)c2)CC1)C(C)C)C(=O)O` [Peptide 33] ({Galloyl-Trx}-WVDV-OH): 0.58 µM.

Another experiment deals with T1, human P-selectin.
Test: not given
As to conditions: Table 2; values marked b, from not pre-published European patent application 01203314.8; read-out: IC50 for human P-selectin as determined by competition Elisa; cited from earlier work.
On to AWVDV [Peptide A131], for which the IC50 was 27 µM.
Consider CDVEWVDVSSLEWDLPC [TM11], for which the IC50 is 2 µM.
On to DWVDV [Peptide A129], for which the IC50 is 16 µM.
As to EWVDV [Peptide A29], the IC50 was 8 µM.
Turning to KWVDV [Peptide A130], the IC50 was 28 µM.
With WVDV [Peptide A138], the IC50 was above 1000 µM.

The target in the next experiment is T2, P-selectin (Homo sapiens, UniProt P16109).
T2 sequence (P16109 42-830): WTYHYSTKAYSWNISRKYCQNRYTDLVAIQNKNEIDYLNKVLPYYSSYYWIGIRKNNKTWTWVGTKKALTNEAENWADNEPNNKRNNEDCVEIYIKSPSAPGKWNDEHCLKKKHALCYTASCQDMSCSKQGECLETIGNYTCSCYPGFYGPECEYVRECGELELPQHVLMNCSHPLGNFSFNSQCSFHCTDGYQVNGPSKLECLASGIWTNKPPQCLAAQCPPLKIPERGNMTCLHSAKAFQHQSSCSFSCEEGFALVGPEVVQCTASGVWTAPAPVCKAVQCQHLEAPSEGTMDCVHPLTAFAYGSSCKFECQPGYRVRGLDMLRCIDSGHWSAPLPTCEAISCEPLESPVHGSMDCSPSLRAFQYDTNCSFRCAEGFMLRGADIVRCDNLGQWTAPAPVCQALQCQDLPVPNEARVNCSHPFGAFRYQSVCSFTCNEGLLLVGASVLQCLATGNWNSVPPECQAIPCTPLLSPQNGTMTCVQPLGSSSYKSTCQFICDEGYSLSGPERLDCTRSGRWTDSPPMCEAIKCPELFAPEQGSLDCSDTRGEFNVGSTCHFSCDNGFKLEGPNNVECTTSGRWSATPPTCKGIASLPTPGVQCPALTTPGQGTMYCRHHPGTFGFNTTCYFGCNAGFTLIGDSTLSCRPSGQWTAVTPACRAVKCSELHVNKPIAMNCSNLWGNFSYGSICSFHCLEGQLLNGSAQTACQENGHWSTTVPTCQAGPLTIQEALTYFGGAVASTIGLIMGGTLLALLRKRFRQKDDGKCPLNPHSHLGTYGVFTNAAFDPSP
Test: not given
As to conditions: described in European patent application No. 01203314.8; read-out: affinity for P-selectin, IC50; cited from earlier work.
For EWVDV [Peptide A29], the IC50 was around 2 µM.
